These results are taken from article PMC12491518, “Fabrication of cytotoxic mirror image nanopores” (Nature Communications, 2025).

Assay [1] is described as follows: Single-channel electrical recordings in planar lipid bilayers. Type of assay: biochemical. The conditions noted are these: Supplementary Table 1. The procedure: High-resolution electrical recordings for the single-channel characterization were conducted in planar lipid bilayers made up of 1,2-diphytanoyl-sn-glycero-3-phosphocholine (DPhPC, Avanti Polar Lipids)[23],[27],[51]. The lipid bilayer is formed across a polytetrafluoroethylene (Teflon) aperture of ~100 µm in diameter. Teflon is placed between the two sides of the Delrin bilayer chamber, partitioning it into cis and trans compartments (600 µL each). For constructing a solvent-free lipid bilayer, the aperture is made lipophilic by pre-painting both sides with hexadecane in n-pentane (1 μL, 5 mg mL^−1)[51]. After ~10 min, the chambers were filled with buffered electrolytes (1 M KCl, 10 mM HEPES, pH 7.4), and DPhPC in n-pentane (1 μL, 5 mg mL^−1) was added. After ~15 min incubation, the lipid bilayer is formed by raising and lowering the electrolyte solution, bringing the two lipid monolayers together at the aperture. The cis compartment was connected to the ground electrode, while the trans compartment was connected to the working live electrode. Subsequently, DpPorA or DpPorA DE peptides solubilized in 0.1% DDM (1 µL, 100 µg mL^−1) were consistently introduced into the cis compartment of the bilayer. The peptide pore insertion was facilitated by mixing the bilayer chamber and applying a high voltage of +200 mV. The single-channel electrical properties of the peptide pores and analyte-induced pore blockages were examined in 1 M KCl, 10 mM HEPES, pH 7.4. Ion selectivity was assessed under asymmetric salt conditions with a KCl concentration gradient across the planar lipid bilayer (0.15 M cis/1 M trans) (SI text)[27]. The ion current was acquired and amplified using an Axopatch 200B amplifier, digitized with Digidata 1550B digitizer, and recorded using the pClamp 11 acquisition software (Molecular Devices, CA). The current signals were filtered with a 2 kHz low-pass filter frequency and 10 kHz sampling frequency, or with 10 kHz low-pass filter frequency and 50 kHz sampling frequency, in line with the requirement.

In another assay the test system is MDA-MB-231 cells. Type of assay: cell-based, human. To be noted: 10 µM and 20 µM, 24 h, MTT, n = 3. The method, then: The MDA-MB-231 cell line was obtained from ATCC (Kind gift from Dr. Annapoorni Rangarajan, Indian Institute of Science, Bengaluru, Karnataka, India) and tested negative for mycoplasma contamination. Cells were cultured in DMEM (Gibco, 11965-092) supplemented with 10% FBS (Thermo Fisher Scientific, 10270-106) and Penicillin (100 Units/mL) /Streptomycin (100 µg/mL) (Thermo Fisher Scientific, 15070-063). […] Cell proliferation was measured 24 h after the addition of Peptide/ DDM using MTT assay (3-(4,5-dimethylthiazol-2-yl)-2,5-diphenyltetrazolium bromide, M6494, Thermo Fischer Scientific). […] The purple-colored formazan crystals were dissolved by adding 100 µL DMSO (D5879, Sigma Aldrich), and the absorbance at 570 nm was measured using a plate reader (EMax plus microplate reader). […]
Immunofluorescence (IF) images were analyzed to assess the impact of different treatments on cell membrane integrity. […] We evaluated a t least 100 cells for each group - Control, DDM-treated cells and peptide-treated cells- with independent analysis done by a student blinded to the groups' identity . […]
indicating a loss of cell membrane integrity. This categorization provided a clear and systematic approach to quantify the effects of various treatments on cell membrane integrity. […]

Where no end group is shown, it is not given here.

Take “MIDQITEIFGQLGTFLGGFGNIFKGLKAVIATIVKWTAAK [LpPorA DE]”: the “experimental conductance Gexp” value in assay [1] turned out to be 3.8 ± 0.2 nS.
For the sequence “MIDQITEIFGQLGTFLGGFGNIFKGLKDVIETIVKWTAAK [LpPorA]”, the “experimental conductance Gexp” value in assay [1] was 3.0 ± 0.2 nS. The “change in cell viability” value in the assay on MDA-MB-231 cells is reported as “no significant change in viability”.
